# In US20240180883A1, “TREATMENT OF MIGRAINE” (Allergan Pharmaceuticals International Limited, priority 2020, published 2024):
# Values joined by “and” are separate entries in the source; they are usually repeats but may differ in a detail not shown here. Equal entries are not always repeated. “Also recorded” adds a separate entry of the source. Where two headings read alike, the source gives them in different places.
# Legend:
# [1] = Ubrogepant clinical pharmacokinetics summary; type: in vivo, human
# Procedure: Ubrogepant is excreted mainly through the biliary/fecal route, while the renal route is a minor route of elimination.
# In clinical studies, ubrogepant was administered without regard to food. […]
# [2] = test system: plasma protein; experiment: Plasma protein binding by equilibrium dialysis (hepatic impairment study); type: in vitro ADME, human
# Procedure: Sampling was also done at the following times for plasma protein binding determinations: Day 1 at 0 hour (predose) and 2 hours post dose.
# Protein binding blood samples were collected from all participants starting on Day 1 at 0 hour (predose) and at 2 hours post-dose. The pre-dose samples collected prior to dosing for each participants were spiked with known quantities of ubrogepant.
# [3] = Study A: drug interaction PK with verapamil or ketoconazole; type: in vivo, human; conditions: for AUC(0-inf) / half-life / Cmax / Tmax: human, plasma, oral
# Text: Study A (verapamil and ketoconazole) comprised 3 treatment periods.
# Healthy adults aged 19-50 years for Study A and 18-45 years for Study B were eligible to participate. […] For study B, participants had to have a BMI between 18.0 and 30 kg/m^2. Exclusion criteria for both studies included hypersensitivity to any study drug; exposure to hepatitis B virus, hepatitis C virus, or HIV; or use of any drug or substance known to affect CYP enzymes or P-gp.
# [4] = Study A: safety; type: in vivo, human
# Procedure: Study A (verapamil and ketoconazole) comprised 3 treatment periods. […] Ubrogepant was administered under fasted conditions.
# [5] = test system: adult patients with migraine; experiment: Phase 3 Study 2 (NCT02867709) migraine efficacy; type: in vivo, human; conditions: Study 2, 50 mg
# Text: (§1) In two randomized, double-blind, placebo-controlled, Ph. […] Of the ubrogepant-treated patients in these two studies, approximately 89% were female, 82% were white, 15% were Black, and 17% were of Hispanic or Latino ethnicity. The mean age at study entry was 41 years (range of 18-75 years).
# In all studies, patients were instructed to treat a migraine with moderate to severe headache pain intensity. […] Up to 23% of patients were taking preventive medications for migraine at baseline. None of these patients were on concomitant preventive medication that act on the CGRP pathway.
# The primary efficacy analyses were conducted in patients who treated a migraine with moderate to severe pain. […] Pain freedom was defined as a reduction of moderate or severe headache pain to no pain, and MBS freedom was defined as the absence of the self-identified MBS (i.e., photophobia, phonophobia, or nausea). Among patients who selected an MBS, the most commonly selected was photophobia (56%), followed by phonophobia (24%) and nausea (19%).
# Table 14 also presents the results of the analyses of the percentage of patients achieving pain relief at 2 hours (defined as a reduction in migraine pain from moderate or severe to mild or none) post-dose and the percentage of patients achieving sustained pain freedom between 2 to 24 hours post-dose.
# [6] = Adverse reactions in Studies 1 and 2; type: in vivo, human
# Text: as §1
# [7] = Long-term safety, open-label extension study; type: in vivo, human
# Procedure: Long-term safety was assessed in 813 patients, dosing intermittently for up to 1 year in an open-label extension study. […] Of these 813 patients, 421 patients were exposed to 50 mg or 100 mg for at least 6 months, and 364 patients were exposed to these doses for at least one year, all of whom treated at least two migraine attacks per month, on average. […] The most common adverse reaction resulting in discontinuation in the long-term safety study was nausea.
# [8] = test system: adults with migraine; experiment: Consistency of treatment, ACHIEVE trials and long-term extension trial; type: in vivo, human
# Procedure: Therapeutic gain (TG) was calculated for the ACHIEVE trial and separately for the first 3 attacks of moderate/severe pain intensity treated in the long term extension trial, using placebo data from ACHIEVE. The TG ratio (TGR) was the TG from the LTE divided by the TG in the ACHIEVE trial multiplied by 100. Following consultation with regulatory agencies, a consistency threshold for the TGR of 50% or greater was used for this analysis.
# [9] = single dose [14C]-ubrogepant, healthy male subjects
# [10] = Studies 1 and 2, 50 mg (N = 954)
# [11] = Studies 1 and 2, 100 mg (N = 485)
smiles,measurement,setting,value
"C[C@@H]1[C@H](c2ccccc2)C[C@H](NC(=O)c2cnc3c(c2)C[C@@]2(C3)C(=O)Nc3ncccc32)C(=O)N1CC(F)(F)F [ubrogepant, (3′S)-N-((3S,5S,6R)-6-methyl-2-oxo-5-phenyl-1-(2,2,2-trifluoroethyl)piperidin-3-yl)-2′-oxo-1′,2′,5,7-etrahydrospiro[cyclopenta[b]pyridine-6,3′-pyrrolo[2,3-b]pyridine]-3-carboxamide]",renal route elimination,"[1]; human, in vivo",< 10%
same,mean apparent oral clearance (CL/F),"[1]; human, in vivo, po",approximately 87 L/hr
same,half-life,"[1]; human, plasma, oral, read-out: elimination half-life",5 to 7 h
same,time of peak plasma concentrations,[1]; oral administration,approximately 1.5 hours
same,dose recovered as unchanged ubrogepant in feces,[1]; [9],42%
same,dose recovered as unchanged ubrogepant in urine,[1]; [9],6%
same,mean apparent central volume of distribution (V/L),[1]; single dose oral administration,approximately 350 L
same,change in AUC,[1]; with a high-fat meal,no change in AUC
same,delay of time to maximum plasma concentration,[1]; with a high-fat meal,2 h
same,reduction in Cmax,[1]; with a high-fat meal,22%
same,percentage of protein-bound ubrogepant,"[2]; 0 hr (predose sample spiked with ubrogepant), mild-impaired",88.87 ± 1.12%
same,percentage of protein-bound ubrogepant,"[2]; 0 hr (predose sample spiked with ubrogepant), moderate-impaired",87.42 ± 1.89%
same,percentage of protein-bound ubrogepant,"[2]; 0 hr (predose sample spiked with ubrogepant), normal hepatic function",88.52 ± 0.84%
same,percentage of protein-bound ubrogepant,"[2]; 0 hr (predose sample spiked with ubrogepant), severe-impaired",84.58 ± 0.91%
same,percentage of protein-bound ubrogepant,"[2]; 2 hr post-dose, 100 mg, mild-impaired",89.9% and 89.85 ± 1.33%
same,percentage of protein-bound ubrogepant,"[2]; 2 hr post-dose, 100 mg, moderate-impaired",88.2% and 88.24 ± 1.02%
same,percentage of protein-bound ubrogepant,"[2]; 2 hr post-dose, 100 mg, normal hepatic function",89.3% and 89.28 ± 1.54%
same,percentage of protein-bound ubrogepant,"[2]; 2 hr post-dose, 100 mg, severe-impaired",85.3% and 85.27 ± 0.94%
same,increase in ubrogepant Cmax,[3]; coadministered with verapamil 240 mg vs alone,~2.8 fold
same,AUC(0-inf),"[3]; 20 mg, ubrogepant 20 mg alone (Table 9), read-out: AUC0-∞, AM",213 ng·h/mL
same,AUC(0-inf),"[3]; 20 mg, ubrogepant 20 mg alone, read-out: AUC0-∞, mean (SD)",213 ng·h/mL
same,half-life,"[3]; 20 mg, ubrogepant 20 mg alone, read-out: Apparent terminal t1/2, mean (SD) (converted)",2.5 h
same,Cmax,"[3]; 20 mg, ubrogepant 20 mg alone, read-out: Cmax, mean (SD)",45.2 ng/mL
same,Tmax,"[3]; 20 mg, ubrogepant 20 mg alone, read-out: Tmax, median (range)",2 h
same,AUC(0-inf),"[3]; ubrogepant 20 mg + ketoconazole 400 mg, read-out: AUC0-∞, mean (SD)",2070 ng·h/mL
same,half-life,"[3]; ubrogepant 20 mg + ketoconazole 400 mg, read-out: Apparent terminal t1/2, mean (SD) (converted)",5.9 h
same,Cmax,"[3]; ubrogepant 20 mg + ketoconazole 400 mg, read-out: Cmax, mean (SD)",240 ng/mL
same,Tmax,"[3]; ubrogepant 20 mg + ketoconazole 400 mg, read-out: Tmax, median (range)",2.5 h
same,AUC(0-inf),"[3]; ubrogepant 20 mg with verapamil 240 mg, read-out: AUC0-∞, AM",742 ng·h/mL
same,half-life,"[3]; ubrogepant 20 mg with verapamil 240 mg, read-out: Apparent terminal t1/2, AM (converted)",4.29 h
same,Cmax,"[3]; ubrogepant 20 mg with verapamil 240 mg, read-out: Cmax, AM",125 ng/mL
same,Tmax,"[3]; ubrogepant 20 mg with verapamil 240 mg, read-out: Tmax",2 h
same,"Apparent terminal t1/2, mean (SD)",[3]; ubrogepant 20 mg + ketoconazole 400 mg,6.00 (1.27) h
same,"Apparent terminal t1/2, mean (SD)",[3]; ubrogepant 20 mg alone,2.52 (0.56) h and 2.52 h
same,exposure of ubrogepant on co-administration,"[3]; with ketoconazole, a strong CYP3A4 inhibitor",significant increase in exposure
same,exposure of ubrogepant on co-administration,"[3]; with verapamil, a moderate CYP3A4 inhibitor",increase in ubrogepant exposure
same,elevations in serum transaminases or bilirubin,[4]; Study A,no participants experienced elevations in serum transaminases or bilirubin greater than or equal to 2-fold ULN
same,total TEAEs reported,"[4]; Study A, all treatment periods",39 TEAEs
same,safety and tolerability,"[4]; single oral dose coadministered with multiple doses of verapamil or ketoconazole, healthy adults",safe and generally well tolerated; also recorded: safe and generally well-tolerated
same,"Most Bothersome Symptom Free at 2 hours, % Responders",[5],38.9%
same,"Most Bothersome Symptom Free at 2 hours, Difference from Placebo",[5],11.5%
same,"Pain Relief at 2 hours, % Responders",[5],62.7%
same,"Pain free at 2 hours, % Responders",[5],21.8%
same,"Pain free at 2 hours, Difference from Placebo",[5],7.5%
same,"Sustained pain freedom at 2-24 hours, % Responders",[5],14.4%
same,Dry Mouth,[6]; [10],<1%
same,Nausea,[6]; [10],2%
same,Somnolence (includes sedation and fatigue),[6]; [10],2%
same,Dry Mouth,[6]; [11],2%
same,Nausea,[6]; [11],4%
same,Somnolence (includes sedation and fatigue),[6]; [11],3%
same,patients withdrawn because of an adverse reaction,"[7]; intermittent dosing for up to 1 year, 50 mg or 100 mg",2.5%
same,most common adverse reaction resulting in discontinuation,[7]; long-term safety study,nausea
same,rate of 2-hour pain relief,[8]; ACHIEVE ubrogepant 100 mg treated attacks,61.4%
same,rate of 2 hour pain freedom,[8]; ACHIEVE ubrogepant 100 mg-treated attacks,21.2%
same,rate of 2 hour pain freedom,"[8]; LTE trial, 100 mg, mean across first 3 attacks",21.6%
same,rate of 2-hour pain relief,"[8]; LTE trial, 100 mg, mean across first three attacks",68.0%
